Measurements published in publication PMC2902587 (International journal of pharmaceutics, 2010).
Values after ≈ are worked out from the molar mass of the structure shown.

Legend:
[1] = target: T1, MRP2 (Homo sapiens, UniProt Q92887); assay: [14C] erythromycin uptake in MDCK-MRP2 cells; type: cell-based
[2] = target: T1, MRP2; assay: Bidirectional [14C] erythromycin transport across MDCK-MRP2 cell monolayers; type: cell-based
[3] = tested on: MRP2; assay: as above; type: cell-based, human; details: human, pH 7.4
[4] = target: T2, P-gp (human MDR1) (Homo sapiens, UniProt P08183); details: MDCKII-MDR1 monolayers
[5] = target: T2, P-gp (human MDR1); assay: in vitro; details: MDCK-MDR1, pH 7.4
[6] = target: T2, P-gp (human MDR1); assay: [14C] erythromycin uptake in MDCKII-MDR1 cells; type: cell-based
[7] = target: T3, BCRP (Homo sapiens, UniProt Q9UNQ0); assay: Accumulation of Hoechst 33342 in MDCK-BCRP cells; type: cell-based; details: gatifloxacin 0.5, 1, 2.5, 5 and 10 mM, Hoechst 33342 5μM
T3 sequence (Q9UNQ0 1-655): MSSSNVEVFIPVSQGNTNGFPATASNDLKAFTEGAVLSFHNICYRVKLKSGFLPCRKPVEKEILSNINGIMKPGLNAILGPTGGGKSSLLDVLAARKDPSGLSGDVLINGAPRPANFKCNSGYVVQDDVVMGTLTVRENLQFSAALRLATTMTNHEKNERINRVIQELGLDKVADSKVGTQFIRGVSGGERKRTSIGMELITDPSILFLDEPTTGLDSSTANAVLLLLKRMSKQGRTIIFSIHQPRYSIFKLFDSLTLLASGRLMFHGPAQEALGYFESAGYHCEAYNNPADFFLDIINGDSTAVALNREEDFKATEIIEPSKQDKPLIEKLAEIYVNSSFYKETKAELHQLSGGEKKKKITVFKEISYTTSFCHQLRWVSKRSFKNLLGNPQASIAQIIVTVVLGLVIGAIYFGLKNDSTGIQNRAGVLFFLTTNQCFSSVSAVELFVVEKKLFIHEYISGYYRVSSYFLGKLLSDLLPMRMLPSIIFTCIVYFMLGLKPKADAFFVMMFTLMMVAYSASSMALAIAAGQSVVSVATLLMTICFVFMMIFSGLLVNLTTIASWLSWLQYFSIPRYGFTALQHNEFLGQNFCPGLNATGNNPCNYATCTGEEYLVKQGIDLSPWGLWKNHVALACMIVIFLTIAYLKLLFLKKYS

[8] = tested on: MDCKII-MDR1, MDCK-MRP2 and MDCK-BCRP cells; assay: ATP activity assay in MDCK cell lines; type: cell-based, dog; details: all MDCK cell lines, 30 min treatment, 0.75, 1.25, 2.5 and 5mM
[9] = tested on: many bacterial species; details: cited from earlier work
[10] = tested on: P-gp; details: rat endothelial cell line (RBMEC); ref Li et al. 2009; cited from earlier work

T1 sequence (Q92887 whole entry): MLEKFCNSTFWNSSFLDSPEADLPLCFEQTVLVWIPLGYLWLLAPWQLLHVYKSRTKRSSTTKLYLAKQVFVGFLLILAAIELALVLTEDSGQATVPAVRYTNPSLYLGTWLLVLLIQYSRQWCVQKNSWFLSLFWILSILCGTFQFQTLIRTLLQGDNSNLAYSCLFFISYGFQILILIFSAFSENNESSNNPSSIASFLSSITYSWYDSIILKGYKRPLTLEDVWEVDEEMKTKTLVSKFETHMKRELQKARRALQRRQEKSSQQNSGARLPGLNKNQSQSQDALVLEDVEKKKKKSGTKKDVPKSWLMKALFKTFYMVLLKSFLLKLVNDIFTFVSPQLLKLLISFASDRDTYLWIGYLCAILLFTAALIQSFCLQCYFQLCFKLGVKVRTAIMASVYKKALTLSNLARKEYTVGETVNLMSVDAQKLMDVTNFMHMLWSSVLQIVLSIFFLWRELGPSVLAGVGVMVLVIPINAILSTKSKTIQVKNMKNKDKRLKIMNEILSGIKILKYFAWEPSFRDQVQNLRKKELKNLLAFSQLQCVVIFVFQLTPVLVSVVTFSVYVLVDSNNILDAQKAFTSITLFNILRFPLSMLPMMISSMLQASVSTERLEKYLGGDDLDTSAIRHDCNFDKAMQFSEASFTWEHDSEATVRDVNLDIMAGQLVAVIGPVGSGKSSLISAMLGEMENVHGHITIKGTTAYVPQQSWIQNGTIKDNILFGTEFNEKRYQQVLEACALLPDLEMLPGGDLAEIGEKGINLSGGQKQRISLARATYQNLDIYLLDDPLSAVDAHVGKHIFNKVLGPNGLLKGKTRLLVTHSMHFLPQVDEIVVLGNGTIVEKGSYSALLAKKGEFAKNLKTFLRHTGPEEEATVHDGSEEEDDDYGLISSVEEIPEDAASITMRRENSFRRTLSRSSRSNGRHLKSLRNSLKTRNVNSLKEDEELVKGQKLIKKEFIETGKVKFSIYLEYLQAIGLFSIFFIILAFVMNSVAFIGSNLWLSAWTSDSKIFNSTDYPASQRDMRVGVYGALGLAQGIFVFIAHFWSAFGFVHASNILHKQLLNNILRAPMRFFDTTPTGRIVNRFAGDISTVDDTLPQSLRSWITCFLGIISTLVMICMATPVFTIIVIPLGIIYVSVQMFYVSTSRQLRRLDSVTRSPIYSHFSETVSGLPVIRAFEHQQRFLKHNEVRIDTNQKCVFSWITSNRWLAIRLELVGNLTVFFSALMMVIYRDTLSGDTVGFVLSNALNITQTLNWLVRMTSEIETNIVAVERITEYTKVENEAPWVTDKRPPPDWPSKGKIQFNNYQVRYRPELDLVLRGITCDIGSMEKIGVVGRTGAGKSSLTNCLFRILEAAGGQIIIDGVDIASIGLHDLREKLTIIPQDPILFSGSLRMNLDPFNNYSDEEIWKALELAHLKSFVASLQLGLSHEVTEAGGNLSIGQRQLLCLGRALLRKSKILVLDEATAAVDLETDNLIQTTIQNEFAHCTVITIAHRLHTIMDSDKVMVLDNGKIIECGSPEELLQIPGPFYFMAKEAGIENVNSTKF
T2 sequence (P08183 whole entry): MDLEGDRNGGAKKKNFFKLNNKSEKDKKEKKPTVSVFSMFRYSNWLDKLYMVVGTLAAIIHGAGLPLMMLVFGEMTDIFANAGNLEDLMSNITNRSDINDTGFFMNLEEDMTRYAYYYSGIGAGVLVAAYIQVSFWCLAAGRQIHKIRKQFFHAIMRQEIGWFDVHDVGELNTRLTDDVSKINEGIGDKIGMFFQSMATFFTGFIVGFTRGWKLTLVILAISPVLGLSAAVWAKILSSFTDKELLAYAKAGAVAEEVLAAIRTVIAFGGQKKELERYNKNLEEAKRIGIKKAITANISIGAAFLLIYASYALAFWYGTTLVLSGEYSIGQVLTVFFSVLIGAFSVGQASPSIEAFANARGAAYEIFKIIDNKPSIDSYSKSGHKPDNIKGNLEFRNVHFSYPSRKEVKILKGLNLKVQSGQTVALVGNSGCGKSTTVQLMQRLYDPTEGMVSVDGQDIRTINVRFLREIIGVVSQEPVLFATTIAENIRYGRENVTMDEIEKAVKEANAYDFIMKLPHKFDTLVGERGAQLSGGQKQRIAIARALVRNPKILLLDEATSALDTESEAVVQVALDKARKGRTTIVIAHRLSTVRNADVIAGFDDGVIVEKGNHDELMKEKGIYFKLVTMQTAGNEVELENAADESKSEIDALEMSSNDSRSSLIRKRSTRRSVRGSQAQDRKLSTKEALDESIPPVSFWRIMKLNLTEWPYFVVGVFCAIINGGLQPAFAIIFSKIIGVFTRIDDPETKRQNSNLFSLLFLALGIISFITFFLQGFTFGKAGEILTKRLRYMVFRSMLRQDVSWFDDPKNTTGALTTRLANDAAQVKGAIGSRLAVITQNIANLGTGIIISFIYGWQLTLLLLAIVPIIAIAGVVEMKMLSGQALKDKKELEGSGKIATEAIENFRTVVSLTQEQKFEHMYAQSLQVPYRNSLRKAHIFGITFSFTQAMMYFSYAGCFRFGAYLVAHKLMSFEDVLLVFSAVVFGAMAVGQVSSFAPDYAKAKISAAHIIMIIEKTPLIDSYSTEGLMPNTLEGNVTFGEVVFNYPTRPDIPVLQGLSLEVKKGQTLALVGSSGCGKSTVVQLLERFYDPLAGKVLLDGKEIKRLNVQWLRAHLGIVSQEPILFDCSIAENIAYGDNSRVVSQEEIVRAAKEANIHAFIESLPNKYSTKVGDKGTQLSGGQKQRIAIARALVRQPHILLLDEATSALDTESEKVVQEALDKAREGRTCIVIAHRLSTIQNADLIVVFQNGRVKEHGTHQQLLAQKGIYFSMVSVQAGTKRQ

Row | SMILES | IC50 [1] | Ki [1] | Uptake of [14C] erythromycin higher by ([1]; MDCK-MRP2 cells, 100 μM MK571, 30 min) | efflux ratio at 3 h ([2]; human, pH 7.4) | efflux ratio at 3 h [3] | Papp of [14C] erythromycin in B-A direction relative to AP-BL direction ([4]; erythromycin alone) | efflux ratio at 3 h [5] | IC50 [6] | Ki [6] | Effect on efflux ratio of [14C] erythromycin ([2]; MDCK-MRP2 monolayers, increasing concentrations of gatifloxacin) | Effect on Hoechst 33342 uptake [7] | ATP activity of treated cells compared to vehicle control [8] | Effect on efflux ratio of [14C] erythromycin ([4]; increasing concentrations of gatifloxacin) | Minimum inhibitory concentration (MIC) ([9]; against many bacterial species, introduction, no reference given) | Activity relative to the other quinolones ([9]; ref Ba et al. 2006) | Involvement of P-gp in the translocation of gatifloxacin [10]
1 | CN(C)C(=O)CCSC(SCCC(=O)O)c1cccc(/C=C/c2ccc3ccc(Cl)cc3n2)c1 (stereo not drawn) [MK571] | 188 ± 28.2 µM | 175 ± 18.2 µM | 177% |  |  |  |  |  |  |  |  |  |  |  |  | 
2 | CC[C@H]1OC(=O)[C@H](C)[C@@H](O[C@H]2C[C@@](C)(OC)[C@@H](O)[C@H](C)O2)[C@H](C)[C@@H](O[C@@H]2O[C@H](C)C[C@H](N(C)C)[C@H]2O)[C@](C)(O)C[C@@H](C)C(=O)[C@H](C)[C@@H](O)[C@]1(C)O [[^14C] erythromycin, erythromycin] |  |  |  | 5.3 | > 7 | more than fivefold higher | 7.2 |  |  |  |  |  |  |  |  | 
3 | COc1c(N2CCNC(C)C2)c(F)cc2c(=O)c(C(=O)O)cn(C3CC3)c12 (stereo not drawn) [gatifloxacin] | 5230 ± 390 µM | 5370 ± 218 µM |  |  |  |  |  | 359 ± 90.1 µM | 385 ± 88.6 µM | continuously became lower and approached unity | not found to be significantly different | No significant difference | progressively decrease and approach unity | 0.1 µg/mL (≈ 0.266 µM) | two- to fourfold more active | did not find any significant involvement
